Source: patent US11590109B2 (priority 2016, dated 2023)

How the values were obtained:
[1] = test system: JEV (Japanese encephalitis virus); assay: Inhibition of viral replication (CPE) at cellular level, JEV in Vero; details: for SI (TC50/IC50): JEV in host cell Vero; for IC50: Japanese encephalitis virus, Vero
H7N9 (influenza virus) [2] = details: H7N9 in host cell MDCK
H3N2 (influenza virus) [3] = assay: microbe, parasite or virus in culture; details: Influenza A virus, H3N2, MDCK
H7N9 (influenza virus) [4] = assay: microbe, parasite or virus in culture; details: Influenza A virus, H7N9, MDCK
H1N1 (influenza virus) [5] = assay: microbe, parasite or virus in culture; details: Influenza A virus, H1N1, MDCK
in vitro [6] = details: dog, TC50
in vitro [7] = details: African green monkey
H3N2 (influenza virus) [8] = details: H3N2 in host cell MDCK
[9] = test system: RSV (human respiratory syncytial virus); assay: Inhibition of viral replication (CPE) at cellular level, RSV in Vero; details: for SI (TC50/IC50): RSV in host cell Vero; for IC50: human respiratory syncytial virus, Vero
[10] = test system: EV71 (hand-foot-and-mouth virus); assay: microbe, parasite or virus in culture; details: Enterovirus A
Zika Virus = assay: Inhibition of viral replication (CPE) at cellular level, Zika Virus in Vero; details: for SI (TC50/IC50): Zika Virus in host cell Vero; for IC50: Zika virus, Vero
H1N1 (influenza virus) [11] = details: H1N1 in host cell MDCK
[12] = test system: Dengue Virus 2 (type 2 dengue virus); assay: Inhibition of viral replication (CPE) at cellular level, Dengue Virus 2 in Vero; assay type: cell-based; details: Dengue Virus 2 in host cell Vero; for IC50: CPE
From the text: Activity Test for Inhibition of Viral Replication at Cellular Level […]
The present inventors tested inhibitory effects of the compound of the present invention on cytopathic effects (CPE) caused by viral infection on mammalian cells.
Half-inhibitory concentration IC50 and half toxic concentration TC50 of the compound against Dengue Virus 2 (type 2 dengue virus) in host cell Vero (African green monkey kidney cell).

[13] = Determination of TC50 (half toxicity concentration) in RD cells; assay type: cell-based; details: human, host cell RD, EV71 table
[14] = test system: EV71 (hand-foot-and-mouth virus); details: for SI (TC50/IC50): EV71 in host cell RD
[15] = TC50, host cell Vero, Dengue Virus 2 table
[16] = TC50, host cell Vero, RSV table
[17] = TC50, host cell Vero, Zika Virus table

Question: For `CCN(/N=C/c1ccccc1C(=O)O)c1nc(-c2ccccc2Cl)cs1` [Compound 2, (E)-4-(2-chlorophenyl)-2-[1-ethyl-2-(2-carboxybenzylidene)hydrazino]thiazole], which “SI (TC50/IC50)” value [1] is on record?
Answer: Its value is 45.7.

Question: What about the IC50 [1] of the same compound?
Answer: The IC50 was 0.35 µM.

Question: And the “SI (TC50/IC50)” value (H7N9 (influenza virus) [2])?
Answer: Its value is 8.

Question: And the IC50 (H3N2 (influenza virus) [3])?
Answer: The IC50 was 1.5 µM.

Question: What about the IC50 (H7N9 (influenza virus) [4]) of the same compound?
Answer: The IC50 was 5.73 µM.

Question: What about the IC50 (H1N1 (influenza virus) [5]) of the same compound?
Answer: The IC50 was 3.69 µM.

Question: And the CC50 (in vitro [6])?
Answer: Its CC50 is 23 µM.

Question: What about the CC50 (in vitro [7]) of the same compound?
Answer: The CC50 was 16 µM.

Question: And the CC50 (in vitro [7]; [15])?
Answer: The CC50 was 24 µM.

Question: What about the CC50 (in vitro [7]; [16]) of the same compound?
Answer: The CC50 was 29 µM.

Question: And the CC50 (in vitro [7]; [17])?
Answer: Its CC50 is 24 µM.

Question: What about the “SI (TC50/IC50)” value (H3N2 (influenza virus) [8]) of the same compound?
Answer: The value was 15.

Question: And the “SI (TC50/IC50)” value [9]?
Answer: Its value is 4.

Question: And the IC50 [9]?
Answer: The IC50 was 7.69 µM.

Question: What about the IC50 [10] of the same compound?
Answer: Its IC50 is 0.23 µM.

Question: What about the “SI (TC50/IC50)” value (Zika Virus) of the same compound?
Answer: Its value is 53.

Question: What about the IC50 (Zika Virus) of the same compound?
Answer: Its IC50 is 0.45 µM.

Question: And the “SI (TC50/IC50)” value (H1N1 (influenza virus) [11])?
Answer: The value was 8.

Question: And the “SI (TC50/IC50)” value [12]?
Answer: The value was 68.6.

Question: What about the IC50 [12] of the same compound?
Answer: Its IC50 is 0.35 µM.

Question: What about the CC50 [13] of the same compound?
Answer: The CC50 was 1 µM.

Question: What about the “SI (TC50/IC50)” value [14] of the same compound?
Answer: Its value is 4.3.

Question: What does the source list for `Cc1sc(N(C)/N=C/c2ccccc2C(=O)O)nc1-c1ccccc1` [Compound 12, (E)-5-methyl-4-phenyl-2-[1-methyl-2-(2-carboxybenzylidene)hydrazino]thiazole]?
Answer: SI (TC50/IC50) [1]: 100; IC50 [1]: 0.13 µM; SI (TC50/IC50) (H7N9 (influenza virus) [2]): 54; IC50 (H3N2 (influenza virus) [3]): 0.35 µM; IC50 (H7N9 (influenza virus) [4]): 1.09 µM; IC50 (H1N1 (influenza virus) [5]): 0.79 µM; CC50 (in vitro [6]): 51 µM; CC50 (in vitro [7]; [15]): 17 µM; CC50 (in vitro [7]; [16]): 21 µM; CC50 (in vitro [7]; [17]): 13 µM; SI (TC50/IC50) (H3N2 (influenza virus) [8]): 146; SI (TC50/IC50) [9]: 11.7; IC50 [9]: 1.79 µM; IC50 [10]: 0.25 µM; SI (TC50/IC50) (Zika Virus): 56.5; IC50 (Zika Virus): 0.23 µM; SI (TC50/IC50) (H1N1 (influenza virus) [11]): 77; SI (TC50/IC50) [12]: 65; IC50 [12]: 0.26 µM; CC50 [13]: 1 µM; SI (TC50/IC50) [14]: 4

Question: Which results are given for `Cc1ccc(/C=N/Nc2nc(-c3ccccc3Cl)cs2)c(C(=O)O)c1` [Compound 9-1]?
Answer: SI (TC50/IC50) [1]: 100; IC50 [1]: 0.32 µM; SI (TC50/IC50) (H7N9 (influenza virus) [2]): 327; IC50 (H3N2 (influenza virus) [3]): 0.27 µM; IC50 (H7N9 (influenza virus) [4]): 0.67 µM; IC50 (H1N1 (influenza virus) [5]): 0.36 µM; CC50 (in vitro [7]): 32 µM; CC50 (in vitro [7]; [15]): 39 µM; CC50 (in vitro [7]; [16]): 135 µM; CC50 (in vitro [7]; [17]): 42 µM; SI (TC50/IC50) (H3N2 (influenza virus) [8]): 330; SI (TC50/IC50) [9]: 40; IC50 [9]: 3.36 µM; IC50 [10]: 0.33 µM; SI (TC50/IC50) (Zika Virus): 127; IC50 (Zika Virus): 0.33 µM; SI (TC50/IC50) (H1N1 (influenza virus) [11]): 653; SI (TC50/IC50) [12]: 125.8; IC50 [12]: 0.31 µM; CC50 [13]: 3 µM; SI (TC50/IC50) [14]: 9

Question: With `CN(/N=C/c1ccc(F)cc1C(=O)O)c1nc(-c2ccccc2Cl)cs1` [Compound 10, (E)-4-(2-chlorophenyl)-2-[1-methyl-2-(2-carboxyl-4-fluorobenzylidene)hydrazino]thiazole] as the compound, how does the “SI (TC50/IC50)” value [1] read?
Answer: The value was 216.

Question: What about the IC50 [1] of the same compound?
Answer: Its IC50 is 0.06 µM.

Question: What about the “SI (TC50/IC50)” value (H7N9 (influenza virus) [2]) of the same compound?
Answer: The value was 161.

Question: And the IC50 (H3N2 (influenza virus) [3])?
Answer: Its IC50 is 0.1 µM.

Question: What about the IC50 (H7N9 (influenza virus) [4]) of the same compound?
Answer: The IC50 was 0.28 µM.

Question: What about the IC50 (H1N1 (influenza virus) [5]) of the same compound?
Answer: Its IC50 is 0.21 µM.

Question: What about the CC50 (in vitro [6]) of the same compound?
Answer: The CC50 was 32 µM.

Question: What about the CC50 (in vitro [7]) of the same compound?
Answer: Its CC50 is 13 µM.

Question: What about the CC50 (in vitro [7]; [15]) of the same compound?
Answer: Its CC50 is 23 µM.

Question: What about the CC50 (in vitro [7]; [16]) of the same compound?
Answer: The CC50 was 19 µM.

Question: And the CC50 (in vitro [7]; [17])?
Answer: The CC50 was 21 µM.

Question: And the “SI (TC50/IC50)” value (H3N2 (influenza virus) [8])?
Answer: Its value is 320.

Question: What about the “SI (TC50/IC50)” value [9] of the same compound?
Answer: The value was 3.6.

Question: And the IC50 [9]?
Answer: The IC50 was 5.21 µM.

Question: What about the IC50 [10] of the same compound?
Answer: Its IC50 is 0.05 µM.

Question: What about the “SI (TC50/IC50)” value (Zika Virus) of the same compound?
Answer: The value was 350.

Question: And the IC50 (Zika Virus)?
Answer: The IC50 was 0.06 µM.

Question: What about the “SI (TC50/IC50)” value (H1N1 (influenza virus) [11]) of the same compound?
Answer: Its value is 233.

Question: And the “SI (TC50/IC50)” value [12]?
Answer: The value was 460.

Question: What about the IC50 [12] of the same compound?
Answer: Its IC50 is 0.05 µM.

Question: And the CC50 [13]?
Answer: Its CC50 is 0.5 µM.

Question: What about the “SI (TC50/IC50)” value [14] of the same compound?
Answer: The value was 10.

Question: And the “inhibitory effects on human hand-foot-mouth virus EV71” value ([14]; FIG. 2)?
Answer: The value was “a certain inhibitory effects”.

Question: Which “SI (TC50/IC50)” value [1] does the source give for `CN(/N=C/c1ccccc1C(=O)O)c1nc(-c2ccccc2Cl)cs1` [Compound 1, (E)-4-(2-chlorophenyl)-2-[1-methyl-2-(2-carboxybenzylidene)hydrazino]thiazole] here?
Answer: Its value is 80.

Question: And the IC50 [1]?
Answer: Its IC50 is 0.15 µM.

Question: And the “SI (TC50/IC50)” value (H7N9 (influenza virus) [2])?
Answer: The value was 11.

Question: What about the IC50 (H3N2 (influenza virus) [3]) of the same compound?
Answer: The IC50 was 0.12 µM.

Question: What about the IC50 (H7N9 (influenza virus) [4]) of the same compound?
Answer: The IC50 was 2.32 µM.

Question: And the IC50 (H1N1 (influenza virus) [5])?
Answer: Its IC50 is 0.42 µM.

Question: What about the CC50 (in vitro [7]) of the same compound?
Answer: The CC50 was 12 µM.

Question: What about the CC50 (in vitro [7]; [15]) of the same compound?
Answer: Its CC50 is 16 µM.

Question: And the CC50 (in vitro [7]; [16])?
Answer: The CC50 was 31 µM.

Question: What about the CC50 (in vitro [7]; [17]) of the same compound?
Answer: The CC50 was 13 µM.

Question: And the “SI (TC50/IC50)” value (H3N2 (influenza virus) [8])?
Answer: Its value is 125.

Question: And the IC50 [9]?
Answer: The IC50 was 4.34 µM.

Question: What about the IC50 [10] of the same compound?
Answer: The IC50 was 0.14 µM.

Question: And the “SI (TC50/IC50)” value (Zika Virus)?
Answer: The value was 130.

Question: And the IC50 (Zika Virus)?
Answer: Its IC50 is 0.1 µM.

Question: And the “SI (TC50/IC50)” value (H1N1 (influenza virus) [11])?
Answer: The value was 83.

Question: And the “SI (TC50/IC50)” value [12]?
Answer: Its value is 145.

Question: And the IC50 [12]?
Answer: Its IC50 is 0.11 µM.

Question: And the CC50 [13]?
Answer: The CC50 was 1 µM.

Question: And the “SI (TC50/IC50)” value [14]?
Answer: Its value is 7.1.
